Experimental data published in paper PMC4445981, “The glutamate transport inhibitor DL-Threo-β-Benzyloxyaspartic acid (DL-TBOA) differentially affects SN38- and oxaliplatin-induced death of drug-resistant colorectal cancer cells” (BMC Cancer, 2015).

Columns and labels:
Assay type in all cases: cell-based, human
CTR1 = CTR1 protein level by Western blotting; conditions: 24 h
Procedure: Fig. 3 Effect of acute DL-TBOA and chemotherapy treatment on CTR1 protein level. Parental and drug-resistant HCT116 (a) and LoVo (b) cell lines were exposed to SN38 (0.8 μM) or oxaliplatin (20 μM), alone or in combination with 350 μM DL-TBOA as indicated for 24 h. Equal amounts of protein per lane were separated by SDS-PAGE and the protein levels of CTR1 were determined by Western blotting. Top: Representative Western blots (tubulin serves as a loading control), bottom: Densitometric quantification data summarized from 3 independent experiments per condition. Quantitative data are means with S.E.M. error bars of 3 independent experiments. *) p < 0.05, **) p < 0.01, ***) p < 0.001 compared to the control group without drug or TBOA treatment. Two-way ANOVA with Tukey post-test
Cells were grown to a confluence of 60-80 % and treated with chemotherapy, siRNA- or plasmid transfection as indicated. Cells were washed once in PBS, lysed in lysis buffer (1 % SDS, 0.1 M Tris pH 7.5, and 1 mM Na3VO4), sonicated, and protein content determined (DC assay, BioRad). Lysates were mixed 2:1with NuPage LDS sample buffer (Invitrogen). SDS-PAGE was carried out in NOVEX chambers with NuPAGE 10 % Bis-Tris gels under reducing and denaturing conditions, using BenchMark protein ladder (Invitrogen), and 15 μg protein per lane. […] Bands were scanned and quantified using UN-SCAN-IT (Silk Scientific).

[1] = tested on: SLC1A1 localization in HCT116 cells; experiment: Immunofluorescence analysis of SLC1A1 subcellular localization; conditions: 48 h
Procedure: Immunofluorescence analysis was carried out essentially as in [47]. Cells grown on glass coverslips were fixed in 2 % paraformaldehyde, washed in TBST, permeabilized for 5 min (0.5 % Triton X-100 in TBST), blocked for 30 min in 5 % BSA in TBST, incubated with SLC1A1 primary antibody in TBST + 1 % BSA overnight at 4 °C, washed in TBST, and with Rhodamine-phalloidin and AlexaFluor488 conjugated secondary antibody (1:600 in TBS + 1 % BSA) for 1 h, followed by washing in TBST, and mounting in N-propyl-galleate mounting medium (2 % w/v in PBS/glycerol). DAPI was added for 3 min following incubation with the secondary antibody. Cells were visualized using the 60X/1.35 NA objective of an Olympus Bx63 epifluorescence microscope. […] Overlays were carried out using Adobe Photoshop software. No other image adjustment was performed.

[2] = tested on: parental and drug-resistant HCT116 and LoVo cell lines; experiment: MTT viability assay, HCT116 and LoVo cell lines
Procedure: Fig. 2 DL-TBOA augments SN38-induced death in SN38-resistant cells, but protects oxaliplatin-resistant cells from oxaliplatin-induced death. Parental and drug-resistant HCT116 and LoVo cell lines seeded in 96-well dishes were exposed to SN38 (0.1 or 0.8 μM) or oxaliplatin (0.8 or 20 μM), alone or in combination with 70 or 350 μM DL-TBOA as indicated, for 48 h. Viability was assessed by MTT assay. a-b Parental HCT116 cells, (c) SN38 resistant HCT116 cells, (d) Oxaliplatin-resistant HCT116 cells, (e-f) Parental LoVo cells, (g) SN38 resistant LoVo cells, (h) Oxaliplatin-resistant LoVo cells. Data are means with S.E.M. error bars of 3 independent experiments. *) p < 0.05, **) p < 0.01, ***) p < 0.001 compared to the control group without drug or TBOA treatment; #) p < 0.05 compared to controls without TBOA treatment. One-way ANOVA followed by Dunnett post-test
Cells were seeded at appropriate density (LoVo 10,000, and HCT116 5000 cells /100 μl) in growth medium in 96-well plates. Next day, cells were treated with inhibitors and/or chemotherapy in a total volume of 200 μl in growth medium and incubated for 48 h at 37 °C, 5 % CO2. The medium was replaced with 100 μl of 0.5 mg/ml 3-(4,5-dimethylthiazol-2-yl)-2,5-diphenyltetrazolium bromide (MTT) in growth medium. The reaction was stopped 1.5-2.5 h later by addition of 100 μl 20 % SDS in 0.02 M HCl, and incubation overnight to allow complete lysis of cells and formazan crystals. Absorbance was measured in an ELISA plate reader (Thermo Scientific MultiScan FC) at 550 nm. Data were background subtracted and % viability relative to controls calculated.

p53 = p53 protein level by Western blotting; conditions: 24 h; for p53 protein level: 0.8 μM SN38 or 20 μM oxaliplatin
Procedure: Fig. 5 Effects of DL-TBOA on cell death and survival parameters after chemotherapy treatment. Parental and drug-resistant HCT116 (a) and LoVo (b) cell lines were exposed to SN38 (0.8 μM) or oxaliplatin (20 μM), alone or in combination with 350 μM DL-TBOA as indicated, for 24 h. Equal amounts of protein per lane were separated by SDS-PAGE and the protein level of p53 was determined by Western blotting. Top: Representative Western blots, with p150 as loading control. Bottom: Densitometric quantifications based on 3 independent experiments per condition. Data are means with S.E.M. error bars of 3 independent experiments. *) p < 0.05, **) p < 0.01, ***) p < 0.001,****) p < 0.0001 compared to the control group without drug or TBOA treatment; Two-way ANOVA with Tukey post-test
Cells were grown to a confluence of 60-80 % and treated with chemotherapy, siRNA- or plasmid transfection as indicated. Cells were washed once in PBS, lysed in lysis buffer (1 % SDS, 0.1 M Tris pH 7.5, and 1 mM Na3VO4), sonicated, and protein content determined (DC assay, BioRad). Lysates were mixed 2:1with NuPage LDS sample buffer (Invitrogen). SDS-PAGE was carried out in NOVEX chambers with NuPAGE 10 % Bis-Tris gels under reducing and denaturing conditions, using BenchMark protein ladder (Invitrogen), and 15 μg protein per lane. Proteins were transferred to PVDF membranes, which were Ponceau S stained, blocked for 1 h at 37 °C in 5 % nonfat dry milk in TBST (0.01 M Tris/HCl, 0.15 M NaCl, 0.1 % Tween 20, pH 7.4), incubated overnight at 4 °C with primary antibodies diluted in blocking buffer, washed in TBST, incubated with secondary antibodies for 1 h, washed in TBST, and developed using BCIP/NBT (KPL). Bands were scanned and quantified using UN-SCAN-IT (Silk Scientific).

Row | Compound | effect on CTR1 protein level (CTR1; 350 μM DL-TBOA +/- SN38 (0.8 μM) or oxaliplatin (20 μM), HCT116 and LoVo lines) | effect on SLC1A1 localization ([1]; SN38-resistant HCT116 cells, 350 μM DL-TBOA added to chemotherapeutic treatment) | effect on intracellular SLC1A1 localization ([1]; oxaliplatin-resistant HCT116 cells, control and oxaliplatin-treated, 350 μM DL-TBOA) | effect on SLC1A1 localization ([1]; parental HCT116 cells, 350 μM DL-TBOA alone or with chemotherapeutic agents) | effect on SN38-induced loss of viability ([2]; SN38-resistant HCT116 and LoVo cells, concomitant DL-TBOA 70 or 350 μM, 48 h) | effect on oxaliplatin-induced loss of viability ([2]; both parental cell lines, DL-TBOA 70 or 350 μM concomitantly with oxaliplatin, 48 h) | effect on viability of untreated cells ([2]; no chemotherapeutic, DL-TBOA 70 or 350 μM, 48 h, all cell lines (Fig. 2a-h)) | effect on oxaliplatin-induced loss of viability ([2]; oxaliplatin-resistant HCT116 and LoVo cells, DL-TBOA 70 or 350 μM, 48 h) | effect on SN38-induced loss of viability ([2]; parental cell lines, DL-TBOA 70 or 350 μM concomitantly with SN38, 48 h) | effect on chemotherapy-induced p53 induction (p53; 350 μM DL-TBOA concomitant to SN38 or oxaliplatin, parental and drug-resistant HCT116 and LoVo) | effect on CTR1 protein expression (CTR1; 20 μM oxaliplatin, all cell lines except parental HCT116, HCT116-Oxa, LoVo-Oxa) | SLC1A1 subcellular localization ([1]; parental HCT116 cells, 0.8 μM SN38 or 20 μM oxaliplatin) | viable cells remaining ([2]; parental HCT116 and LoVo, 48 h, 20 μM oxaliplatin (highest dose tested)) | p53 protein level (p53; SN38-resistant HCT116 cells) | p53 protein level (p53; parental HCT116 cells)
1 | N[C@H](C(=O)O)[C@H](OCc1ccccc1)C(=O)O (racemic) [TBOA, DL-Threo-β-Benzyloxyaspartic acid] | without detectable effects | increased the fraction of SLC1A1 fluorescence localized to the perinuclear/nuclear compartment | partially reversed | no detectable effect on SLC1A1 localization | concentration-dependently enhanced SN38-induced loss of viability | counteracted the effect of oxaliplatin on viability | small decrease in viability | reversed oxaliplatin-induced loss of viability | slightly exacerbated the SN38-induced loss of viability | apparent decrease in p53 induction | – | – | – | – | –
2 | O=C(O)C(=O)O.[NH-][C@@H]1CCCC[C@H]1[NH-].[Pt+2] [oxaliplatin] | – | – | – | – | – | – | – | – | – | – | tended to reduce CTR1 protein expression | marked shift in SLC1A1 localization towards the perinuclear/nuclear region | about 20% | retained | markedly induced
